The species entered for assay [1] is Callithrix jacchus. In words: animal or person. Particulars: Plasma, po, 6 h, read-out: Inhibition.
Description: Inhibition of plasma renin activity in sodium depleted marmoset at 3 mg/kg, po after 6 hrs
The species named for assay [2] is Callithrix jacchus. In words: animal or person. Particulars: Plasma, po, 6 h, read-out: Inhibition. This is another data set of the same source.
Description: Inhibition of plasma renin activity in sodium depleted marmoset at 10 mg/kg, po after 6 hrs

For `COCCCOc1cc(C[C@@H](C[C@H](N)[C@@H](O)C[C@@H](C)C(=O)NCCCC(N)=O)C(C)C)ccc1OC`, the inhibition in vivo at 3 mg/kg in the assay listed under Callithrix jacchus [1] came out at 95%.
In the case of `COCCCOc1cc(C[C@@H](C[C@H](N)[C@@H](O)C[C@@H](C)C(=O)NCC(C)(C)N2CCOCC2)C(C)C)ccc1OC`, in the assay listed under Callithrix jacchus [2], the inhibition in vivo at 10 mg/kg turned out to be 88%.
Turning to `COCCCOc1cc(C[C@@H](C[C@H](N)[C@@H](O)C[C@@H](C)C(=O)NCCN2CCSCC2)C(C)C)ccc1OC`, the inhibition in vivo at 3 mg/kg in the assay listed under Callithrix jacchus [1] came out at 28%.

Source of the values: ChEMBL document CHEMBL1148800, “Novel 2,7-dialkyl-substituted 5(S)-amino-4(S)-hydroxy-8-phenyl-octanecarboxamide transition state peptidomimetics are potent and orally active inhibitors of human renin” (J Med Chem, 2007).
